# Assay results: patent US20220089540A1 (Board of Trustees of Michigan State University, priority 2019, published 2022)
# Several values for one entry are separate records, joined by “and”; a condition that tells them apart may be missing. Identical values can stand only once.
# Columns and labels:
# PD-L1 = PD-L1 induction in macrophages or RAW264.7 cells with cancer cell conditioned media (flow cytometry); assay type: cell-based, mouse; details: for PD-L1: Table 2, Control 39.8, higher numbers indicate better upregulation; for PD-L1 Levels: Table 4, Control 43.3
# Description: RAW 264.7 mouse macrophage-like (ATCC) and E18-14C-27 (Wu et al., Cancer Res. 62, 6376-6380 (2002)) cells were cultured in DMEM supplemented with 10% fetal bovine serum (FBS). RAW 264.7 cells were cultured at 50000/well in a 6 well plate for 24 hours to determine PD-L1 levels. E18-14C-27 cells were cultured for 72 hours in the presence of LG268 for protein levels. Conditioned media was collected from E18-14C-27 at 60-70% confluence for 24 hours; media was then collected and centrifuged at 900 rpm for 5 minutes to eliminate any cell debris.
# For PD-L1 staining, RAW 264.7 cells were plated at 25000 cells/ml in 6 well plates for 24 hours before adding conditioned media from E18-14C-27 and LG268. RAW 264.7 cells were cultured for additional 24 hours with E18-14C-27 conditioned media and LG268. […] THP-1 cells were stained and analyzed for the levels of PD-L1 following the same protocol.
# Inhibitory receptors on lymphocytes such as PD-1 (programmed cell death protein 1) are important immune checkpoints that protect against autoimmunity as the interaction between PD-L1 (ligand) and the PD-1 receptor expressed on immune cells suppresses T cell activity. Immuno-oncology is revolutionizing cancer treatment, and enormous research efforts are ongoing to identify drugs that upregulate PD-L1 so that they can be combined with checkpoint inhibitors to boost efficacy. Macrophages or RAW264.7 cells are treated with conditioned media from cancer cells and rexinoids, and PD-L1 expression determined by flow cytometry. Higher numbers indicate better upregulation of PD-LI.
# Using methods described herein, macrophages or RAW264.7 cells were treated with selected rexinoids and with conditioned media from cancer cells. Structures of the rexinoids are shown below.
# PD-L1 expression was determined by flow cytometry.
# [1] = system: inducible nitric oxide synthase (iNOS); test: iNOS suppression / NO assay in LPS-stimulated macrophages or RAW264.7 cells (Griess reaction); assay type: cell-based, mouse; details: for activity at 0.125 µM / activity at 0.5 µM: RAW264.7, Control 100, lower numbers indicate higher efficacy, read-out: NO Assay; for activity at 0.125 µM: 125 nM; for activity at 0.5 µM: 500 nM
# Method in brief: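 RAW264.7 cells or macrophages incubated with rexinoids (300 nM, or 100 nM/300 nM, or a concentration series) and stimulated with 1–2 ng/ml LPS for 24 h. Nitric oxide released into medium measured by Griess reaction; values given as percent of LPS-stimulated control, % inhibition, or IC50.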
# SREBP = SREBP induction in human liver (HepG2) cells, RT-PCR; assay type: cell-based; set-up: key to SREBP: fold induction vs DMSO control; details: for SREBP: 300 nM, Control 1.00, lower numbers indicate better safety, Table 2
# Description: The SREBP transcription factor is involved in triglyceride synthesis, and its activation correlates with increased triglycerides in vivo. […] Lower numbers indicate better safety. […] Lower numbers indicate better safety. Also, for Table 6, SREBP activation was measured as fold induction compared to DMSO, where a lower value indicates the compound is an improvement over a control.
# Lung Cancer Model = test: Lung cancer model rank order; assay type: in vivo
# [2] = Triglycerides in rodent models; assay type: in vivo
# RAR receptor = details: cited from earlier work
# [3] = system: mammary gland tumors of MMTV-Neu mice; test: MMTV-Neu mouse model of HER2 positive breast cancer, rexinoid in diet; details: 100 mg/kg diet, LG268 5 days
# Description: Tumors or mammary glands were homogenized in EBC buffer (1M Tris pH 8, 5M NaCl) with the same protease inhibitors and 10% NP-40 and incubated on ice for 30 min. Protein concentrations were determined by the BCA assay (Sigma-Aldrich). Proteins were resolved by SDS-PAGE, transferred to a nitrocellulose membrane and analyzed with the following antibodies: vinculin, p-STAT1, p-STAT3, p-STAT5 and mouse and rabbit secondary antibodies (Cell Signaling); PD-1, CD206 (Abcam); PD-L1 (R&D). ImageJ was used to quantify the immunoblots, and results were plotted and statistically analyzed using Prism 6. All images shown are representative of 3 independent experiments.
# One third of the tumor, mammary gland and spleen removed from MMTV-neu or MMTV-PyMT mice were minced separately and incubated in digestion media consisting of collagenase (300 U/ml, Sigma), dispase (1 U/ml, Worthington), and DNAse (2 U/ml, Calbiochem) for 30 minutes at 37° C. with stirring. Cells were then passed through a 40 μm cell strainer (BD Falcon), and red blood cells eliminated with lysis solution. […] Propidium iodide staining was used to exclude dead cells.
# One third of the tumor, spleen and one mammary was removed from MMTV-neu and PyMT mice and fixed in 10% phosphate-buffered formalin for 48 hours, embedded in paraffin blocks, and sectioned (5-6 μm). Hydrogen peroxide was used to quench endogenous peroxidase activity. Sections were immunostained with antibodies raised against CD206 (1:200, Abcam), Gr1 (1:40, BM8, R&D), CD8 (1:40, Biolegend), FOXP3 (1:50, EBiosciences), PD-1 (1:100, Abcam), PD-L1 (1:50, Abcam), cleaved caspase 3 (Cell Signaling) and visualized with biotinylated anti-rabbit or anti-rat secondary antibodies (Cell Signaling or Vector Labs). Signal was detected using a DAB substrate (Cell Signaling) following the manufacturer's recommendations. Sections were counterstained with hematoxylin (Vector Labs).
# Both rexinoid treatments were 100 mg/kg of diet, which is equivalent to 25 mg/kg of body weight (FIG. 1B).
# human RXRa = molecular target: T1, human RXRa (Homo sapiens, UniProt P19793); test: RXR activation luciferase reporter assay; assay type: cell-based; details: luciferase, Control 0, higher numbers indicate higher potency
# T1 sequence (P19793 1-462): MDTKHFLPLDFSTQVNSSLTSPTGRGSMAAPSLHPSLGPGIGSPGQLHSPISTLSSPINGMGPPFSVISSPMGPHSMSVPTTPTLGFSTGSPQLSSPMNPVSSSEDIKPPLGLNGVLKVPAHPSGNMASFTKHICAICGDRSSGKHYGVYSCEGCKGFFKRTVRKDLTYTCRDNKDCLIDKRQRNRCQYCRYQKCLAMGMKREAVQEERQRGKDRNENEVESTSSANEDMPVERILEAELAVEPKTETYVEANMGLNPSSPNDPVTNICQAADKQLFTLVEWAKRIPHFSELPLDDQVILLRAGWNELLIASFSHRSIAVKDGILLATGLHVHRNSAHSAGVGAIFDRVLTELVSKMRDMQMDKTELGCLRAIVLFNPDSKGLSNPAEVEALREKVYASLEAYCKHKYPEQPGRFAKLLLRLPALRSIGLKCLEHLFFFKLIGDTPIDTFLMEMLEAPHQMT
# Description: Rexinoids are agonists for the retinoid X receptors (RXRs). In this assay, the human RXRa promoter is functionally linked to a luciferase reporter gene. Changes in luciferase expression served as a sensitive surrogate measure of RXR activity. Higher numbers indicate higher potency.
# [4] = Toxicity in A/J mice with lung tumors fed rexinoids plus carboplatin and paclitaxel; assay type: in vivo; details: 100 mg/kg diet, 7 weeks
# Description: A/J mice with lung tumors (detected by ultrasound) were fed rexinoids in their diets (at 100 mg/kg diet) and injected twice every other week with carboplatin and paclitaxel.
# [5] = bexarotene 10 days, western blot
compound,measurement,setting,value
"C=C(c1ccc(C(=O)O)cc1)c1cc2c(cc1C)C(C)(C)CCC2(C)C [Bexarotene, bexarotene]",PD-L1,PD-L1; 100 nM,58.5
same,PD-L1 Levels,PD-L1; 100 nM,51.2
same,PD-L1 Levels,PD-L1; 1000 nM,64
same,PD-L1 levels in RAW 264.7 cells with E18-14C-27C conditioned media,PD-L1; 24 hours,no changes
same,activity at 0.1 µM,"[1]; Mus musculus, RAW264.7, 24 h, at 100 nM, percent of the LPS-stimulated control, lower is better, Table 6",30 to 35%
same,activity at 0.125 µM,[1]; Mus musculus,78%
same,activity at 0.5 µM,[1]; Mus musculus,32.4%
same,iNOS,"[1]; at 100 nM, comparators of Table 3",22-40% at 100 nM
same,SREBP,SREBP,2.13
same,SREBP activation,"SREBP; fold induction compared to DMSO, several values per cell, Table 6",2.7 fold induction and 2.9 fold induction and 1.95 fold induction
same,Lung Cancer Model Rank Order,Lung Cancer Model,5
same,Triglyccerides (Rodent Models),[2],Elevated
same,binding to the RAR receptor,RAR receptor,limited RAR binding
same,PD-L1 expression in tumors vs control,"[3]; CW-V-125 10 days, western blot and/or immunohistochemistry",did not significantly induce
same,"myeloid derived suppressor cells (CD45+, CD11b+, Gr1+) in tumors","[3]; bexarotene 10 days, control 1.9%",did not alter
same,mammary tumor size (tumor weight as percentage of total body weight),"[3]; bexarotene 10 days, control diet 3.2%",did not reduce
same,cleaved caspase 3 in tumors,"[3]; bexarotene 10 days, immunohistochemistry",did not increase
same,reduction of CD206 expression in tumor lysates,[3]; [5],did not induce a change
same,reduction of p-STAT1 expression in whole tumor lysates,[3]; [5],no changes
"CC(C)CN(c1cc(C(C)(C)C)cc(C(C)(C)C)c1)c1ccc(C(=O)O)cn1 [Compound 18, 6-[(3,5-di-tert-butylphenyl)(2-methylpropyl)amino]pyridine-3-carboxylic Acid]",PD-L1,PD-L1; 100 nM,58.5
same,activity at 0.125 µM,[1]; Mus musculus,52%
same,activity at 0.5 µM,[1]; Mus musculus,11.5%
same,RXR assay,human RXRa; 100 nM,12881
same,RXR assay,human RXRa; 2500 nM,35605
same,SREBP,SREBP,1.52
same,"toxicity findings (liver, triglycerides, cholesterol, fur)",[4],normal coats
same,"toxicity findings (liver, triglycerides, cholesterol, fur)",[4]; listed as MSU-42011,less toxicity than LG100268
